Reference: the NIST ThermoML archive (doi:10.1016/j.jct.2005.05.012)
± gives the expanded uncertainty stated by the source.

Columns and labels:
[1] = refractive index (other wavelength) (dimensionless); conditions: 101 kPa, Liquid, Wavelength=632.8 nm, Newport model 1825-C
[2] = refractive index (other wavelength) (dimensionless); xn = mol fraction of the nth substance listed; conditions: 305.5 K, 101 kPa, Liquid, Wavelength=632.8 nm, Newport model 1825-C

SMILES: N#Cc1ccccc1 [benzonitrile]
- refractive index ([1]; 301.4 K): 1.521 ± 0.0002
- refractive index ([1]; 302.96 K): 1.5202 ± 0.0002
- refractive index ([1]; 304.8 K): 1.5194 ± 0.0002
- refractive index ([1]; 306.42 K): 1.5186 ± 0.0002
- refractive index ([1]; 307.83 K): 1.5179 ± 0.0002
- refractive index ([1]; 309.65 K): 1.517 ± 0.0002

SMILES: CCCCCCCCCCCCCCCCCC [octadecane]
- refractive index ([1]; 301.97 K): 1.4339 ± 0.0002
- refractive index ([1]; 303.42 K): 1.4333 ± 0.0002
- refractive index ([1]; 304.68 K): 1.4328 ± 0.0002
- refractive index ([1]; 306.38 K): 1.4321 ± 0.0002
- refractive index ([1]; 307.84 K): 1.4315 ± 0.0002
- refractive index ([1]; 309.28 K): 1.4307 ± 0.0002

SMILES: CCCCCCCCCCCCCCCCCC [octadecane] + N#Cc1ccccc1
- refractive index ([2]; x2 = 0.0996): 1.4316 ± 0.0002
- refractive index ([2]; x2 = 0.1986): 1.4362 ± 0.0002
- refractive index ([2]; x2 = 0.2992): 1.4398 ± 0.0002
- refractive index ([2]; x2 = 0.4025): 1.4447 ± 0.0002
- refractive index ([2]; x2 = 0.4955): 1.4499 ± 0.0002
- refractive index ([2]; x2 = 0.5947): 1.4567 ± 0.0002
- refractive index ([2]; x2 = 0.7985): 1.4777 ± 0.0002
- refractive index ([2]; x2 = 0.8876): 1.4917 ± 0.0002
